Assay results published in ChEMBL document CHEMBL3046659, “Synthesis and Biological Evaluation of Allosteric A1-Adenosine Receptor Modulators Structurally Related to (2-Amino-4,5,6,7-Tetrahydro-Benzo[B]Thiophen-3-YL)-(4-Chloro-Phenyl)-Methanone, a Potent Compound Useful to Reduce Neuropathic Pain” (Med Chem Res, 2005).
Calls of active or inactive are those of the source. No cut-off for these calls is given here.

What was measured:
[1] = biological target: T1, Adenosine receptor A1 (Homo sapiens) (UniProt P30542); assay: Allosteric enhancer activity at Homo sapiens (human) Adenosine A1 receptor expressed in CHO cells assessed as […] in cAMP level at 10 uM after 6 min by radioimmunoassay; type: functional, cell-based
T1 sequence (whole entry): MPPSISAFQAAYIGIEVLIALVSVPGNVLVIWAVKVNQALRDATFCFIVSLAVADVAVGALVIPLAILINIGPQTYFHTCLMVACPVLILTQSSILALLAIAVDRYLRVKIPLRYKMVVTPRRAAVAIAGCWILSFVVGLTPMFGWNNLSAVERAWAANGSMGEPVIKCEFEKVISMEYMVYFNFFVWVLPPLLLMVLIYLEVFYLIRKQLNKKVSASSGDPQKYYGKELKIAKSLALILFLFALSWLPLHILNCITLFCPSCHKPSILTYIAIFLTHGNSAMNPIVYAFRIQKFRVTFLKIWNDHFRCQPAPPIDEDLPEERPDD

[2] = biological target: T1, Adenosine receptor A1 (Homo sapiens); assay: Allosteric modulation of Homo sapiens (human) Adenosine A1 receptor expressed in CHO cells assessed as reduction of cAMP level at 10 uM after 6 min by radioimmunoassay; type: functional, cell-based; design: scale not given: the % may be the effect or the level left
[3] = biological target: T1, Adenosine receptor A1 (Homo sapiens); assay: Allosteric modulation of Homo sapiens (human) Adenosine A1 receptor expressed in CHO cells assessed as reduction of cAMP level at 1 uM after 6 min by radioimmunoassay; type: functional, cell-based; design: scale not given: the % may be the effect or the level left
[4] = biological target: T1, Adenosine receptor A1 (Homo sapiens); assay: Allosteric modulation of Homo sapiens (human) Adenosine A1 receptor expressed in CHO cells assessed as reduction of cAMP level at 0.1 uM after 6 min by radioimmunoassay; type: functional, cell-based; design: scale not given: the % may be the effect or the level left
[5] = biological target: T1, Adenosine receptor A1 (Homo sapiens); assay: Allosteric modulation of Homo sapiens (human) Adenosine A1 receptor expressed in CHO cells assessed as reduction of cAMP level at 0.01 uM after 6 min by radioimmunoassay; type: functional, cell-based; design: scale not given: the % may be the effect or the level left
[6] = biological target: T1, Adenosine receptor A1 (Homo sapiens); assay: Antagonist activity at Homo sapiens (human) Adenosine A1 receptor expressed in CHO cells assessed as cAMP level at 0.01 to 10 uM after 6 min by radioimmunoassay; type: functional, cell-based
[7] = biological target: T1, Adenosine receptor A1 (Homo sapiens); assay: Inverse agonist activity at Homo sapiens (human) Adenosine A1 receptor expressed in CHO cells assessed as increase in cAMP level at 1 uM after 6 min by radioimmunoassay; type: functional, cell-based
[8] = biological target: T1, Adenosine receptor A1 (Homo sapiens); assay: Inverse agonist activity at Homo sapiens (human) Adenosine A1 receptor expressed in CHO cells assessed as increase in cAMP level at 0.1 uM after 6 min by radioimmunoassay; type: functional, cell-based
[9] = biological target: T1, Adenosine receptor A1 (Homo sapiens); assay: Inverse agonist activity at Homo sapiens (human) Adenosine A1 receptor expressed in CHO cells assessed as increase in cAMP level at 10 uM after 6 min by radioimmunoassay; type: functional, cell-based
[10] = biological target: T1, Adenosine receptor A1 (Homo sapiens); assay: Inverse agonist activity at Homo sapiens (human) Adenosine A1 receptor expressed in CHO cells assessed as increase in cAMP level at 0.01 uM after 6 min by radioimmunoassay; type: functional, cell-based
[11] = biological target: T2, Adenosine receptor A1 (Rattus norvegicus) (UniProt P25099); assay: Displacement of [3H]CCPA from A1 receptor in Rattus norvegicus (rat) brain membrane at 10 uM after 90 min
T2 sequence (whole entry): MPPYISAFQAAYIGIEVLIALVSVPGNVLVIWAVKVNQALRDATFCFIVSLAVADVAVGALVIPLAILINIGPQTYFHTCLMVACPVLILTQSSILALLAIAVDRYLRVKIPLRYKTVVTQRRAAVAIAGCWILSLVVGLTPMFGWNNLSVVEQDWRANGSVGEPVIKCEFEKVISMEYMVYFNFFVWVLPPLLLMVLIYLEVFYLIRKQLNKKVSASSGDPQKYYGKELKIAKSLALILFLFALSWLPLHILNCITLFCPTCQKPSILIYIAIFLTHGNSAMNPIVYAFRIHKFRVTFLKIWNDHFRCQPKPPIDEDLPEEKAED

[12] = biological target: T1, Adenosine receptor A1 (Homo sapiens); assay: Displacement of [3H]CCPA from A1 receptor in Homo sapiens (human) brain membrane at 10 uM after 90 min
[13] = biological target: T1, Adenosine receptor A1 (Homo sapiens); assay: Displacement of [3H]CCPA from Homo sapiens (human) A1 receptor expressed in CHO cells at 10 uM after 90 min; type: cell-based

Activity [1]	Activity [2]	Activity [3]	Activity [4]	Activity [5]	Activity [6]	Activity [7]	Activity [8]	Activity [9]	Activity [10]	Activity [11]	Activity [12]	Activity [13]	Bmax [13]	Structure (SMILES)
Active	-29%	-6%	-5%	-8%	–	–	–	–	–	–	–	–	–	Nc1sc2ccccc2c1C(=O)c1ccc(Cl)cc1
–	52%	-2%	-13%	-3%	Active	–	–	–	–	–	–	–	–	Nc1sc2c(c1C(=O)c1ccc(Cl)cc1)CCC(O)C2 (stereo unspecified)
Active	-35%	1%	11%	-1%	–	Active	Active	–	–	–	–	–	–	Nc1sc2c(c1C(=O)c1ccc(Cl)cc1)CCS2
–	16%	-1%	-6%	-11%	Active	–	–	Active	–	–	–	–	–	Nc1sc2c(c1C(=O)c1ccc(Cl)cc1)CCC(Cc1ccccc1)C2 (stereo unspecified)
–	-5%	-17%	-13%	4%	Active	–	–	–	Active	–	–	–	–	COc1ccc(C2SCc3c(sc(N)c3C(=O)c3ccc(Cl)cc3)S2)cc1 (stereo unspecified)
–	-0.3%	16%	-10%	15%	Active	Active	–	–	Active	–	–	–	–	Nc1sc2c(c1C(=O)c1ccc(Cl)cc1)CCSC2
–	-7%	-11%	-1%	20%	Active	–	–	–	Active	33%	29%	65%	53%	Nc1sc2c(c1C(=O)c1ccc(Cl)cc1)CCC(c1ccccc1)C2 (stereo unspecified)
–	28%	3%	-14%	-17%	Active	Active	–	Active	–	–	–	–	–	Nc1sc2c(c1C(=O)c1ccc(Cl)cc1)CCC1(C2)OCCO1
–	-55%	-26%	-23%	-8%	Active	–	–	–	–	–	–	–	–	Nc1sc2c(c1C(=O)c1ccc(Cl)cc1)CCCC2
–	46%	15%	-1%	11%	Active	Active	–	Active	Active	–	–	–	–	CS(=O)(=O)OC1CCc2c(sc(N)c2C(=O)c2ccc(Cl)cc2)C1 (stereo unspecified)
